Experiments:
Assay type in all cases: in vivo
Golden Syrian Hamsters = assay: Serum cholesterol of hamsters on lithogenic diet; details: Lithogenic diet 1 + BAFAC II 150 mg/kg/day by gavage, 10 W
Procedure: Golden Syrian Hamsters-(Anilab, Rehovot, Israel) 4-6 weeks old weighing 90-110 gm were used. They were fed a lithogenic diet (No. 1) consisting of their regular diet supplemented with (w/w) cholesterol 1%, Palmitic Acid 1.2%, Corn Oil 2% (modified from Ayvad et al., Lipids, 1992; 27:993-998) for 10 weeks. Half of the animals were given in addition 3β-arachidylamido-7α,12α-dihydroxy-5β-cholan-24-oic acid at a dose of 150 mg/kg/day suspended in saline, by intragastric gavage. The control animals were similarly given an equal volume of saline. After ten weeks the animals were anesthetized, heart blood was drawn for analysis. The liver and other organs were removed. Serum cholesterol levels were determined by autoanalyzer.

ICR male mice = assay: Fasting blood glucose, streptozotocin treated mice (IDDM model); details: Streptozotocin 200 mg/kg i.p., regular diet, BAFAC 150 mg/kg/day by gavage, 16 days
Procedure: The effects of BAFACs on fasting blood glucose were tested in 3 animal species: Hamsters, Rats and Mice. The animals were kept on regular or high fat diets (as specified). In each group half of the animals received a daily BAFAC dose (150 mg/kg) dispersed in 0.5 ml of saline by gavage. The other half received similarly, by gavage, an equal volume of saline only. All animals were kept on a 12 hr day/night cycle at 22° C. throughout the experiment. They had access to water ad libidum.
ICR male mice, 4 weeks old (approx. 20 gm) were fed a regular diet. Streptozotocin 200 mg/kg was injected i.p. on the first day of the experiment. (This induced damage to the islet cells of the pancreas and simulated IDDM). Fasting blood glucose was obtained from sacrificed animals after 16 days of the trial. There were 3 groups of 7 animals each. Controls—regular diet only. Streptozotocin (Stz) treated animals receiving saline only by gavage and streptozocin treated animals receiving 150 mg/kg/day of BAFAC by gavage. The BAFAC used in all these hyperglycemia studies was a conjugate of arachidic and cholic acid (at position 3) using an amide bond (C-20 BAFAC, Aramchol).

Inbred C57J/L mice = assay: Liver lipid/protein ratio, mice on high fat lithogenic diet; details: BAFAC 150 mg/Kg daily by gavage, 5 weeks
Procedure: Inbred C57J/L mice, 4 weeks old and weighing approx. 20 gm (Jackson Lab. Maine, USA) were used. They were fed for 5 weeks a high fat lithogenic diet consisting of: Cholesterol 1%, Cholic Acid 0.5%, lard 10%, butter 6%, palmitic acid 1.2% and corn oil 2% added (w/w) to their regular diet. In addition to the diet the animals were given daily, by gavage, either a BAFAC (150 mg/Kg) suspended in saline or an equal volume of saline only. The BAFACs were conjugates of cholic acid (at position 3) with either Palmitic Acid (C-16) or Arachidic Acid (C-20) or Behenic Acid (C-22) using an amide bond. The controls (n=5) received saline, the test animals received either the C-16 conjugate (n=5), the C-20 conjugate (n=5) or the C-22 conjugate (n=3). After 5 weeks, following an overnight fast, the animals were anesthetized using ketamine, the liver was removed, and the animals were sacrificed by ketamine overdose. A 0.5 gm sample of liver was homogenized in 5 ml of buffered saline. Liver lipids were extracted from the homogenate by the Folch method using chloroform:methanol (2:1, vol/vol). Half a ml of the homogenate were extracted in 5 ml of the Folch solution. After evaporation of the solvent the lipids were weighed and reevaporated several times until constant weight was obtained. The proteins were quantified in another aliquot of the homogenate according to the method of Bradford. (Bradford M. M., Annal Biochem. 1976, 72:248).
The lipid protein ratio (mg/mg) was calculated. The results for each group are given as means (+St. Dev.) The group values were: […]

human patients = assay: Human study: change in adiponectin; parameters: Change in Adiponectin from Baseline, Mean / Change in Adiponectin from Baseline, Median / Change in Adiponectin from Baseline, Max: unit not given here; details: for Change in Adiponectin from Baseline, Max / Change in Adiponectin from Baseline, Mean / Change in Adiponectin from Baseline, Median / Change in Adiponectin from Baseline, Min: 3 months
Procedure: The effects of BAFACs on disorders associated with Fatty liver, insulin resistance and altered glucose metabolism were tested on 60 human patients. Experiments were subdivided to 2 dosage regimens: Aramchol 300 mg daily (high dose) and 100 mg daily (low dose) respectively for a total period time of 3 months. The Aramchol:placebo ratio is of 2:1 for the low dose arm, and 1:1 for the high dose arms.
The study period included a 3 month treatment period with Aramchol low dose, or Aramchol high dose, or placebo, and a one month follow-up period. Aramchol was given daily orally. During the treatment period, all patients attended periodic […] (at first month) and subsequently monthly study-center visits in order to assess safety and efficacy of the treatment.
The results are shown using two known in the art principle statistical evaluation on, Intention-To-Treat (ITT) and Per Protocol (PP) populations. The ITT principle asserts that the effect of a treatment policy can be best assessed by evaluation on the basis of the intention to treat a subject (i.e. the planned treatment regimen) rather than the actual treatment given. It has the consequence that subjects allocated to a treatment group should be followed up, assessed and analyzed as members of that group irrespective of their compliance to the planned course of treatment. […] Compliance covers such considerations as exposure to treatment, availability of measurements and absence of major protocol violations.

CCCCCCCCCCCCCCCCCCCC(=O)N[C@H]1CC[C@@]2(C)[C@@H](C1)C[C@@H](O)[C@@H]1[C@@H]2C[C@H](O)[C@]2(C)[C@@H]([C@H](C)CCC(=O)O)CC[C@@H]12 [Aramchol, 3β-arachidylamido-7α,12α-dihydroxy-5β-cholan-24-oic acid]
Serum Cholesterol (mean + StD) (Golden Syrian Hamsters): 202 (59.6) mg %
fasting blood glucose (ICR male mice): markedly reduced
lipid protein ratio in liver, mean (+St. Dev.) (Inbred C57J/L mice): 1.44 ± 1.18 mg/mg
Change in Adiponectin from Baseline, Max (human patients; Aramchol 100 mg/d oral, ITT): 11.1
Change in Adiponectin from Baseline, Mean (human patients; Aramchol 100 mg/d oral, ITT): −3.4
Change in Adiponectin from Baseline, Median (human patients; Aramchol 100 mg/d oral, ITT): −2.7
Change in Adiponectin from Baseline, Min (human patients; Aramchol 100 mg/d oral, ITT): −46.3
Change in Adiponectin from Baseline, Max (human patients; Aramchol 100 mg/d oral, PP): 11.1
Change in Adiponectin from Baseline, Mean (human patients; Aramchol 100 mg/d oral, PP): −3.4
Change in Adiponectin from Baseline, Median (human patients; Aramchol 100 mg/d oral, PP): −2.3
Change in Adiponectin from Baseline, Min (human patients; Aramchol 100 mg/d oral, PP): −46.3
Change in Adiponectin from Baseline, Max (human patients; Aramchol 300 mg/d oral, ITT): 41.7
Change in Adiponectin from Baseline, Mean (human patients; Aramchol 300 mg/d oral, ITT): 1.8
Change in Adiponectin from Baseline, Median (human patients; Aramchol 300 mg/d oral, ITT): −1.3
Change in Adiponectin from Baseline, Min (human patients; Aramchol 300 mg/d oral, ITT): −28.0
Change in Adiponectin from Baseline, Max (human patients; Aramchol 300 mg/d oral, PP): 41.7
Change in Adiponectin from Baseline, Mean (human patients; Aramchol 300 mg/d oral, PP): 1.8
Change in Adiponectin from Baseline, Median (human patients; Aramchol 300 mg/d oral, PP): −1.3
Change in Adiponectin from Baseline, Min (human patients; Aramchol 300 mg/d oral, PP): −28.0
levels of adiponectin (in words) (human patients; Aramchol 300 mg/d, tested subjects, Tables 5 and 6): increases the levels of adiponectin
